# “And” between values parts separate entries of the source, which are not always exact repeats. Identical values can stand only once. Like-named read-outs stand apart in the source and are kept apart here.
# What was measured:
# [1] = tested on: histamine-stimulated acid secretion in pylorus-ligated rats; assay: Histamine-stimulated acid secretion in pylorus-ligated rat models; type: in vivo, Sprague-Dawley rats; conditions: histamine 30 mg/kg s.c., pylorus-ligated male rats
# Method: 1.1 Histamine-stimulated acid secretion in pylorus-ligated rat models
# The rats were fasted overnight with ad libitum access to water. Vehicle or X842 (2 mg/kg, 8 mg/kg) was administered orally to male Sprague-Dawley rats using a feeding catheter ina blinded manner. One hour after dosing, the pylorus was ligated under isoflurane anesthesia, and histamine (30 mg/kg/10 mL) was immediately administered subcutaneously. At 3 hours after histamine administration, the rats were sacrificed by carbon dioxide asphyxiation. The gastric contents were collected from the removed stomach. The gastric contents were collected and centrifuged at 3000 rpm for 10 minutes. The volume of each sample was measured, the gastric acid concentration was determined by acid-base titration, and the total acidity was […]
# 2.Supplementary Figures and Tables
# 2.1 Supplementary Figures
# dogs = assay: Toxicity in dogs (data to be published); type: in vivo
# Gastric H+/K+-ATPase = biological target: T1, Gastric H+/K+-ATPase (Oryctolagus cuniculus, UniProt P27112); assay: Inhibition of H+/K+-ATPase activity (Malachite Green Pi assay); type: biochemical, rabbit
# T1 construct: Gastric H^+/K^+-ATPase was prepared from rabbit glands; from tissue; host or cells: rabbit gastric glands
# T1 sequence (P27112 whole entry): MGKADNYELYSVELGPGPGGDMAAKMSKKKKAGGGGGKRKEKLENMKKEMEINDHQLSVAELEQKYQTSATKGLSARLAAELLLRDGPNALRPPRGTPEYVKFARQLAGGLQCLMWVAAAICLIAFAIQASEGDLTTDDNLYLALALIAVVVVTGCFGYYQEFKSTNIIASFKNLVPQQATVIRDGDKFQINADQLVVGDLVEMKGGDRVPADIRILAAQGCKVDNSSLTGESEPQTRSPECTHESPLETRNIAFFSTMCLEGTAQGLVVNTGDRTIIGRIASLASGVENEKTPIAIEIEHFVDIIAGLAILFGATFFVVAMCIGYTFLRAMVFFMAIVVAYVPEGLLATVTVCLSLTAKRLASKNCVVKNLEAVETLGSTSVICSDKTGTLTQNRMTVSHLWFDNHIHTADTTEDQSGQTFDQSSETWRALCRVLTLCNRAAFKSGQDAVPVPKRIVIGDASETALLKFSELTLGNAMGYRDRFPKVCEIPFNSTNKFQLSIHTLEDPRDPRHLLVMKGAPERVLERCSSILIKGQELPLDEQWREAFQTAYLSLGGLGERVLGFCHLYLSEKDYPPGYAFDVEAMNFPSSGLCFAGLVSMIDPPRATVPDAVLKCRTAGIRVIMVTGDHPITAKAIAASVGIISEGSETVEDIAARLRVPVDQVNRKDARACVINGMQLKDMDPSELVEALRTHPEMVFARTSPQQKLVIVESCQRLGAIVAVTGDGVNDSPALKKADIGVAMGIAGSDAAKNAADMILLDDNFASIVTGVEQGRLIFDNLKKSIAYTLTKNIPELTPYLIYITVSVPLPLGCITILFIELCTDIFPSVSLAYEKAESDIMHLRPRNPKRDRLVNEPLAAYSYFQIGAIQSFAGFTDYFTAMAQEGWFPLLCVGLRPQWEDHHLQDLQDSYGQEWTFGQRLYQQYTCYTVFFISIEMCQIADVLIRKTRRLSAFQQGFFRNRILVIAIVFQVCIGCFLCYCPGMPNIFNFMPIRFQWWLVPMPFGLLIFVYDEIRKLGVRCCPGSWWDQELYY
# T1 sequence (P18597 whole entry partner): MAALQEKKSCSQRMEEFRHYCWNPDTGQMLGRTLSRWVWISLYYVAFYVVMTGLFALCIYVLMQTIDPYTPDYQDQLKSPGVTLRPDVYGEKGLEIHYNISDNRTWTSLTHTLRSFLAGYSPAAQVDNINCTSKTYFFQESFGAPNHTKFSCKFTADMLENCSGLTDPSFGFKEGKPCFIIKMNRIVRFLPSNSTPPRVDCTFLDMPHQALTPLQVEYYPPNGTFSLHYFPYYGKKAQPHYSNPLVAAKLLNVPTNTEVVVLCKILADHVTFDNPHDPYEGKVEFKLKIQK
# Method: The H^+/K^+-ATPase inhibition reaction was performed in buffer (50 mM Tris-HCl, 5 mM magnesium chloride, 10 μM valinomycin, pH 6.5) with or without 20 mM potassium chloride (KCl), and inorganic phosphate (Pi) was detected using Malachite Green solution, made from 0.1% malachite green, 1.5% hexaammonium molybdate, and 0.2% Tween-20 in a ratio of 100:25:2 ([Skou, 1982]; [Feng et al., 2011]). Gastric H^+/K^+-ATPase was prepared from rabbit glands, as described previously ([Kondo et al., 2012]; [Arikawa et al., 2012]). The reaction occurred in a 96-well plate with a total volume of 50 µL/well, including buffer, enzyme, ATP, and drug. After 30 min at 37 °C for enzyme stability, ATP was added at 0.2 mM to start the reaction, which was optimized from the titration experiments. The reaction lasted 20 min at 37 °C, followed by the addition of Malachite Green for the colorimetric assay. The enzyme control wells contained the full enzyme system, while the buffer control wells contained only buffer to correct for background values. Absorbance was measured at 620 nm using a plate reader (SpectraMax M5). The inhibition rate was calculated using the following formula, accounting for the enzyme activity in the presence and absence of K^+: Inhibition Rate %=ODwith K+and enzyme,without drug−ODwith K+and enzyme,with drug /ODwith K+and enzyme,without drug−ODwithout K+and enzyme,without drug×100 where “OD with K^+ and enzyme, without drug” is the optical density measured at 620 nm in the presence of K^+ and enzyme, without the tested drug (enzyme control wells); “OD with K^+ and enzyme, with drug” is the optical density measured at 620 nm in the presence of K^+ and enzyme, with the tested drug; and “OD without K^+ and enzyme, without drug” is the optical density measured at 620 nm in the absence of K^+ and enzyme, without the tested drug (buffer control wells).
# [2] = tested on: gastric acid secretion in pylorus-ligated rats; assay: Gastric acid inhibition in pylorus-ligated rats; type: in vivo
# Method: The rats were fasted overnight with ad libitum access to water. Drugs and vehicle were administered orally to rats in a blinded manner. The pylorus was ligated under ether anesthesia within 1 h after drug and vehicle administration, and the abdomen was closed by suturing. At 4 h after pyloric ligation, the rats were sacrificed by CO2 asphyxiation, and the stomach was removed ([Hori et al., 2010]). The gastric contents were collected and centrifuged at 3,000 rpm for 10 min. The volume of each sample was measured, the gastric acid concentration was determined by acid-base titration, and the total acidity was calculated.
# gastric pH = assay: Phase I gastric pH holding time ratio; type: in vivo, humans; conditions: unpublished Phase I data
# rats = assay: Toxicity in rats (data to be published); type: in vivo
# acid secretion = tested on: acid secretion; set-up: method as in Gedda et al., 2007; Scarpignato and Hunt, 2024; conditions: rats; ref Gedda et al., 2007; Scarpignato and Hunt, 2024; cited from earlier work
# [3] = in the presence of K+ (20 mM KCl), pH 6.5, read-out: IC50, H+/K+-ATPase inhibition
# [4] = in the presence of potassium ions, rabbit gastric glands, read-out: IC50 (Figure 7A)
SMILES,Total acidity inhibitory rate (%) ([1]; oral 2 mg/kg),Total acidity inhibitory rate (%) ([1]; oral 8 mg/kg),"Adverse effects (acute, reproductive, teratogenic, carcinogenic toxicity) (dogs)",Inhibitory effect on H+/K+-ATPase in the absence of K+ (Gastric H+/K+-ATPase),Fold lower inhibitory activity against H+/K+-ATPase compared with linaprazan (Gastric H+/K+-ATPase; in the presence of K+) [fold],IC50 (Gastric H+/K+-ATPase; [3]),IC50 (Gastric H+/K+-ATPase; [4]) [µM],Duration of acid suppression ([2]; after a single oral dose),"Total acidity inhibitory rate (%) ([2]; oral 0.15 mg/kg, pylorus-ligated rats (not significant))","Total acidity inhibitory rate (%) ([2]; oral 0.5 mg/kg, pylorus-ligated rats)","Total acidity inhibitory rate (%) ([2]; oral 1.0 mg/kg, pylorus-ligated rats)","Total acidity inhibitory rate (%) ([2]; oral 1.5 mg/kg, pylorus-ligated rats)","Dose required for 50% inhibition (ID50) ([2]; oral, pylorus-ligated rats, total gastric acid) [mg/kg]","Gastric pH ≥4 holding time ratio (HTR) (gastric pH; oral doses ≥50 mg, throughout the 24-h period) [%]","Gastric pH ≥4 holding time ratio (HTR), nocturnal (gastric pH; oral doses ≥100 mg, nocturnal periods (12–24 h)) [%]","Adverse effects (acute, reproductive, teratogenic, carcinogenic toxicity) (rats)",Duration of inhibitory effect on acid secretion (acid secretion) [h]
"Cc1cccc(C)c1CNc1cc(C(=O)NCCOC(=O)CCCC(=O)O)cn2c(C)c(C)nc12 [X842, linaprazan glurate]",66,71,No significant adverse effects,No measurable inhibitory effect,~10,0.436 µM,0.436,at least 24 h,6,44,61,85,0.55,> 50,> 50,No significant adverse effects,
Cc1cccc(C)c1CNc1cc(C(=O)NCCO)cn2c(C)c(C)nc12 [linaprazan],,,,No measurable inhibitory effect,,0.04 µM and 0.0402 µM,0.0402,,,,,,,,,,24
